Earlier results, collected in patent US20060204445A1, “Cell scaffold matrices with image contrast agents” (priority 2005, published 2006).

Settings: in vivo

heparin
normal half-life of heparin: 1 to 2 h
